Experimental data from patent US8278300B2, “Use for PDE5 inhibitors” (Nycomed GmbH, priority 2004, dated 2012).

What was measured:
[1] = test system: cerebral blood flow within the posterior cerebral artery; assay: Transcranial Doppler of visually stimulated cerebral blood flow in pulmonary hypertension patients; assay type: in vivo, human; details: for cerebral microvascular reactivity: patients with chronic pulmonary hypertension
Description: It has been shown—contrary to the skilled person's expectation, that the vasodilating effect achieved with a PDE5 inhibitor extends to the improvement of the kinetics in blood flow changes upon stimulation of the cortex by utilizing a visual stimulation paradigm. This could be shown by using the doppler-ultrasound technology which can measure the heart-beat dependent pulsatile blood flow within the basale cerebral vasculature with very high resolution. With a standard visual stimulation the Doppler is able by insonate the posterior cerebral artery to measure the activity-dependent blood-flow-regulation. [Rosengarten et al. (2001) Neurovascular coupling in terms of a control system: validation of a second-order linear system model. Ultrasound Med. Biol. 27: 631-5; Babikian et al. (2000) Transcranial Doppler ultrasonography: year 2000 update. J Neuroimaging 10: 101-115]
A pharmaceutical preparation comprising a PDE5 inhibitor can be used to treat patients with primary and secondary pulmonary hypertension. […] The hemodynamics aspects of the cerebral blood flow modulation can be described by a mathematical model (see Rosengarten et al., Headache 2003; 43: 458-463). This cited model contains a parameter T which defines the initial fast responding properties of the blood flow upon visual stimulation and three parameters (K, ζ and ω) which define the delayed adjustment of the […] blood flow. T is called the hold-back-time or rate time, K is the gain (which means change in blood flow velocity upon visual stimulation),ζ the attenuation (which represents the dampening due to vessel wall attenuation) and ω the natural frequency (represents the oscillating properties in dynamic neurovascular coupling). Patients with primary and secondary pulmonary hypertension display a pulmonary disturbance between ventilation of the alveoli and their perfusion. Such a demand-dependent inadequate perfusion has also been shown for the vasculature near the muscles. In this invention it is shown that patients with pulmonary hypertension display an increase in the rate time (meaning T is larger) and an enhanced attenuation ζ of the cerebral blood flow within the posterior cerebral artery upon visual stimulation. Thus it is shown that the mentioned disturbed micro-perfusion observed in patients with pulmonary hypertension extents to that of the brain. […] In addition the pro-longed hold-back time (rate time) in the patients is shortened by treatment with the PDE5-inhibitor sildenafil. This measurements have been performed 1 h after sildenafil intake but all responses to oral sildenafil outlasted 120-150 min.
In contrast to sildenafil iloprost treatment (2,8 μg inhaled in 4 min) worsens the impaired rate time and attenuation in patients with pulmonary hypertension (FIG. 1).
FIG. 1. Assessment of cerebral flow characteristics. Values for rate time and attenuation are presented in this graph. Medians (filled circles) and 95% confidence intervals (bars) are given for healthy controls, and patients at baseline (untreated), after iloprost inhalation, and subsequent to oral sildenafil intake. Statistical differences were assessed by ANOVA (p-values indicate significant differences between groups). Fisher's post hoc test was calculated at a significance level of p<0.05;

pulmonary circulation = assay: Pulmonary haemodynamics in patients with chronic pulmonary hypertension; assay type: in vivo, human; details: inhaled iloprost, oral sildenafil
[2] = test system: epicardial coronary arteries; details: patients with coronary artery disease; cited from earlier work
stroke in rats = details: cited from earlier work
[3] = test system: rats with LPS-induced sepsis; assay: LPS-induced sepsis in anaesthetized rats: sensoric evoked potentials and evoked cerebral blood flow; assay type: in vivo, rat; details: 4½ h after inducing sepsis with LPS
Description: Modulation of the cerebral blood flow evoked by repetitive electrical stimulation of the sole of one foot of the rats is measured by Doppler ultrasound technology as well as the sensoric evoked neuronal potentials (SEPs) by EEG. Baseline measurements are performed before application of LPS to the rats to induce sepsis.

[4] = patients with pulmonary hypertension, iloprost 2,8 μg inhaled in 4 min

Compound	cerebral microvascular reactivity [1]	attenuation of cerebral blood flow upon visual stimulation [1, 4]	rate time of cerebral blood flow upon visual stimulation [1, 4]	pulmonary arterial pressure (pulmonary circulation)	pulmonary vascular resistance (pulmonary circulation)	relaxation of epicardial coronary arteries [2]	functional recovery after stroke (stroke in rats)	neurogenesis after stroke (stroke in rats)	duration of responses to oral sildenafil ([1]; patients with pulmonary hypertension, 50 mg oral) [min]	hold-back time (rate time) T of cerebral blood flow upon visual stimulation ([1]; patients with pulmonary hypertension, sildenafil 50 mg, oral, 1 h after intake)	attenuation parameter ζ of cerebral blood flow upon visual stimulation ([1]; patients with pulmonary hypertension, sildenafil 50 mg, oral, one hour before measurement)	stimulus induced cerebral blood flow ([3]; Doppler ultrasound)	amplitude of the SEP (sensoric evoked neuronal potentials) ([3]; electrical stimulation of one foot)
CC#CCC(C)[C@H](O)/C=C/[C@@H]1[C@H]2C/C(=C/CCCC(=O)O)C[C@H]2C[C@H]1O (stereo partly shown) [iloprost]	gradually worsened	worsens	worsens	significant reduction	significant reduction	–	–	–	–	–	–	–	–
CCCc1nn(C)c2c(=O)[nH]c(-c3cc(S(=O)(=O)N4CCN(C)CC4)ccc3OCC)nc12 [sildenafil, 5-[2-ethoxy-5-(4-methylpiperazin-1-ylsulfonyl)phenyl]-1,6-dihydro-1-methyl-3-propylpyrazolo[4,3-d]pyrimidin-7-one]	significantly improved	–	–	significant reduction	significant reduction	relax epicardial coronary arteries	promotes functional recovery	induces neurogenesis	120 to 150	shortened	significantly reduced	greatly restores	greatly restores
